# According to patent publication US7638678B2, “Animal model for perimenopause and menopause and methods of inducing ovarian failure” (The Arizona Board of Regents, priority 2002, dated 2009):
# “Also recorded” adds a separate entry of the source.
# Columns and labels:
# androstenedione = assay: Circulating androstenedione RIA; assay type: in vivo, B6C3F1 mice; conditions: 160 mg/kg 15 d
# Experimental: (§1) Treatment: Immature mice (d28) were weighed and injected i.p. with either 80 mg/kg (1, 2, or 3 times daily), 160 mg/kg (1 or 2 times daily), or 240 mg/kg (once daily) with VCD or sesame oil (vehicle control, i.p.) for 15 d resulting in a total daily exposure of 80, 160, 240, or 320 mg/kg (n=6/group). All reagents were obtained from Sigma-Aldrich (St. Louis, Mo.). Estrous cycles of each animal were monitored daily by vaginal cytology from date of vaginal opening to persistent diestrus in VCD-treated mice, and from date of vaginal opening to d120 in controls. On d8, d10, d12, d14, d15, d30, d37, d46, d57 and d120, animals were weighed, euthanized by CO2 inhalation, and the ovaries, liver and trunk blood were collected. […] At each time point, adrenals, kidneys, uteri, ovaries, liver, and spleen were removed, grossly examined for lesions and wet tissue weights were recorded. […]
# (§2) Hormone Assays: Plasma FSH was measured by radioimmunoassay (RIA). […] Tubes were centrifuged for 15 minutes at 3000 rpm, supernatant was decanted and pellets were counted in a gamma counter for 1 minute each. […] Plasma 17β-estradiol was measured in unextracted plasma by radioimmunoassay (Diagnostic Products Inc., CA). […] Circulating androstenedione was measured by specific RIA. […] The results of all RIAs were calculated by four-parameter logistic analysis using the software AssayZap (BioSoft, Ferguson, Mo.). […]
# ovarian follicles [1] = assay: Follicle depletion by other routes and vehicles; assay type: in vivo; conditions: i.p. injection in DMSO vehicle
# ovarian follicles [2] = conditions: cited from earlier work
# [3] = test system: ovarian follicles (primordial, primary, secondary, antral); assay: Histology and follicle counting after VCD dosing; assay type: in vivo, B6C3F1 mice
# Experimental: (§3) Treatment: Immature mice (d28) were weighed and injected i.p. with either 80 mg/kg (1, 2, or 3 times daily), 160 mg/kg (1 or 2 times daily), or 240 mg/kg (once daily) with VCD or sesame oil (vehicle control, i.p.) for 15 d resulting in a total daily exposure of 80, 160, 240, or 320 mg/kg (n=6/group). All reagents were obtained from Sigma-Aldrich (St. Louis, Mo.). Estrous cycles of each animal were monitored daily by vaginal cytology from date of vaginal opening to persistent diestrus in VCD-treated mice, and from date of vaginal opening to d120 in controls. On d8, d10, d12, d14, d15, d30, d37, d46, d57 and d120, animals were weighed, euthanized by CO2 inhalation, and the ovaries, liver and trunk blood were collected. Plasma was separated from whole blood and stored at −20° C., and liver tissues were stored at −80° C. At each time point, adrenals, kidneys, uteri, ovaries, liver, and spleen were removed, grossly examined for lesions and wet tissue weights were recorded. Additional blood samples were collected by retro-orbital puncture and plasma was collected and stored on d58, d79, d91, and d100.
# Histology and oocyte counting: Ovaries were trimmed of fat and placed in Bouin's fixative (2 hours), transferred to 70% ethanol, paraffin-embedded and serially sectioned (4-5 μm), mounted and stained with hematoxylin and eosin. In every 20th section (10-13 sections per ovary), pre-antral follicles were classified as primordial (oocyte surrounded by a single layer of flattened granulosa cells), primary (oocyte surrounded by a single layer of cuboidal cells), secondary (oocyte surrounded by multiple layers of granulosa cells) or antral follicles (follicles containing a fluid-filled antrum). Femora were collected on d58 from both control and VCD-treated animals, fixed in 4% paraformaldehyde, transferred to formaldehyde/formic acid (Cal-Rite, Richard Allan Scientific, Kalamazoo, […]., decalcified 24 hours, vacuum embedded in paraffin and 4.5 μm sections of distal metaphysis were prepared and stained with hematoxylin and eosin.
# Data Analysis: Oocyte numbers were determined in ovaries from individual animals, averaged, and the means (±SEM) in control versus treated animals were analyzed for significant differences by one-way analysis of variance (ANOVA) with significance set at p<0.05. Post-hoc tests (Tukey-Kramer) were used where appropriate. The differences in plasma hormone concentrations among treatments were analyzed using a one-way ANOVA. The correlation coefficient was determined by regression analysis.
# 17β-estradiol = assay: Plasma 17β-estradiol radioimmunoassay; assay type: in vivo, B6C3F1 mice; conditions: 160 mg/kg 15 d, d37 through d91
# Experimental: as §1, §2
# [4] = test system: liver enzymes AST and ALT, hepatocellular vacuolar degeneration, plasma lipids; assay: Assessment of hepatic function and plasma lipids; assay type: in vivo, B6C3F1 mice
# Experimental: Assessment of Hepatic Function: Hepatocellular vacuolar degeneration and enzymatic activity of circulating aspartate aminotransferase (AST) and alanine aminotransferase (ALT) were determined by the Diagnostic Laboratory of the Arizona Health Sciences Center. Total cholesterol and triglycerides were quantified using Sigma reagents 401-25P and 344-20 respectively. HDL was measured by precipitating apoB-containing lipoproteins (Boehringer Mannheim reagent 543004) and assaying cholesterol in the supernatant fraction using the Sigma 401-25P reagent.
# FSH = assay: Plasma FSH radioimmunoassay; assay type: in vivo, B6C3F1 mice; conditions: 160 mg/kg 15 d
# Experimental: as §3
# Hormone Assays: Plasma FSH was measured by radioimmunoassay (RIA). Rat FSH hormone antigen, rat FSH antiserum and mouse FSH reference preparation were purchased from the National Institute of Diabetes and Digestive and Kidney diseases. Iodination reagents (Iodo-Beads™28665, 28666) were purchased from Pierce (Rockford Ill.). Briefly, a standard curve was prepared and cold standards and samples (100 μl) were added to labeled tubes along with primary antibody (1:1400 dilution) and iodinated FSH. Samples were shaken and stored at 4 C overnight. On day 2, 100 μl secondary antibody (Sigma Chemical, cat. # R9133) was added (1:10) dilution along with 200 μl of 2% normal rabbit serum and incubated at room temperature for 5 minutes. Tubes were centrifuged for 15 minutes at 3000 rpm, supernatant was decanted and pellets were counted in a gamma counter for 1 minute each. All samples were run in duplicate. The mean sensitivity of the assay was 200 pg/ml and inter- and intra-assay coefficients of variation were 2.7% and 6.7% respectively. Plasma 17β-estradiol was measured in unextracted plasma by radioimmunoassay (Diagnostic Products Inc., CA). The mean sensitivity of the assay was 5.1 pg/ml. The intra-assay coefficient of variation was 5.3%. Circulating androstenedione was measured by specific RIA. Androstenedione standards and antibody were provided by Dr. Cheryl Dyer (Northern Arizona University). The mean sensitivity of the assay was 70 pg/ml with an inter-assay coefficient of variation of 5.3%. The results of all RIAs were calculated by four-parameter logistic analysis using the software AssayZap (BioSoft, Ferguson, Mo.). Results are the mean±SEM.
# [5] = 240 mg/kg (80 mg/kg 3× daily), 15 d, d15
# [6] = 240 mg/kg (240 mg/kg 1× daily), 15 d, d15
# [7] = 320 mg/kg (160 mg/kg 2× daily), 15 d, d15
structure (smiles),measurement,setting,value
"C1CC2OC2CC1C1CO1 (stereo not shown) [VCD, 4-vinylcyclohexene diepoxide]",Relative abundance of androgen versus estrogen,androstenedione; d46,97 % of androgen plus estrogen
same,Circulating androstenedione,"androstenedione; d46, plasma pools",0.73 ± 0.05 ng/mL
same,Follicular depletion with DMSO vehicle versus sesame oil,ovarian follicles [1],achieves the same follicular depletion
same,Activity on dermal application,ovarian follicles [2]; dermal application in acetone,active
same,Follicle loss after other routes of exposure,"ovarian follicles [2]; oral, dermal, or inhalation exposure",follicle loss also occurs
same,Primary follicles,"[3]; 80 mg/kg i.p. daily, 15 d, d15",38.6 % of control
same,Primordial follicles,"[3]; 80 mg/kg i.p. daily, 15 d, ovaries d15",12.1 % of control
same,Primary follicles,"[3]; 160 mg/kg (80 mg/kg 2× daily), 15 d, d15",11.3 % of control
same,Primordial follicles,"[3]; 160 mg/kg (80 mg/kg 2× daily, and 160 mg/kg 1× daily), 15 d, d15",0 % of control
same,Primary follicles,"[3]; 160 mg/kg (160 1× daily), 15 d, d15",2.8 % of control
same,Antral follicles on d46,"[3]; 160 mg/kg i.p. 15 d, d46",2.6 % of control
same,Primary follicles on d46,"[3]; 160 mg/kg i.p. 15 d, d46",0.5 % of control
same,Primordial follicles on d46,"[3]; 160 mg/kg i.p. 15 d, d46",no primordial follicles
same,Secondary follicles on d46,"[3]; 160 mg/kg i.p. 15 d, d46",0.7 % of control
same,Primary and primordial follicle numbers over time,"[3]; 160 mg/kg i.p., d8-d30",reduced (p<0.05) primary and primordial follicle numbers progressively over time
same,Antral follicle numbers,"[3]; 160 mg/kg, 15 d, d15-d46",progressively reduced
same,Primordial follicle loss at the optimal concentration,"[3]; 160 mg/kg, injected 1× daily",complete loss of primordial follicles
same,Primary follicles,[3]; [5],5.1 % of control
same,Primordial follicles,[3]; [5],2.1 % of control
same,Primary follicles,[3]; [6],0 % of control
same,Primordial follicles,[3]; [6],0 % of control
same,Primary follicles,[3]; [7],0.6 % of control
same,Primordial follicles,[3]; [7],0 % of control
same,Plasma levels of 17β-estradiol,17β-estradiol,below the limit of detection
same,Circulating alanine aminotransferase (ALT),"[4]; 160 mg/kg 15 d, d1-d46",not different from controls; also recorded: within the normal range
same,Circulating aspartate aminotransferase (AST),"[4]; 160 mg/kg 15 d, d1-d46",not different from controls; also recorded: within the normal range
same,"Total plasma cholesterol, HDL and triglycerides","[4]; d10, d15 and d37",within the normal range
same,Occurrence of hepatocellular vacuolar degeneration,"[4]; naive, vehicle-treated control or VCD-treated mice, any time",no difference
same,Plasma FSH,FSH; d37,11.5 ± 5.7 ng/mL
same,Plasma FSH,FSH; d46,14.3 ± 1.3 ng/mL
same,Plasma FSH,FSH; d58,20.2 ± 1.2 ng/mL
same,Plasma FSH,FSH; d100,25.8 ± 0.23 ng/mL
same,Plasma FSH,FSH; d120,25.9 ± 1.1 ng/mL
same,Plasma FSH,FSH; d127 (data not shown),increased (p<0.05) relative to controls
